{
  "source": "patent US11564904B2",
  "about": "“Gingko diterpene lactone composition” (Jiangsu Kanion Pharmaceutical Co., Ltd., priority 2017, dated 2023)",
  "key": {"[1]": {"test_system": "PAF-induced platelet aggregation", "assay": "In vitro PAF-induced platelet aggregation rate of rabbits", "type": "cell-based, New Zealand white rabbits", "conditions": "compositions 9.26 μg/ml, nimodipine 0.05 μg/ml", "procedure": "(§1) Rabbits were treated with procaine by local anesthesia, carotid arterial cannulation and bleeding. […] Incubation was performed for 5 min, then 10 μl of 146 μg/ml ADP and 10 μl of 10 μg/ml PAF were added in turn. […] Aggregation inhibition rate (%)=(maximum aggregation rate of blank control group−maximum aggregation rate of administration group)/maximum aggregation rate of blank control group×100%. The experimental data was expressed as x±s and analyzed by SPSS 17.0 statistical software. The comparison of means between multiple groups was performed by one-way analysis of variance. The comparison of sample means between two groups was performed by q test. P<0.05 was considered statistically significant."}, "[2]": {"test_system": "ADP-induced platelet aggregation", "assay": "In vitro ADP-induced platelet aggregation rate of rabbits", "type": "cell-based, New Zealand white rabbits", "conditions": "compositions 9.26 μg/ml, nimodipine 0.05 μg/ml", "procedure": "as §1"}, "[3]": {"test_system": "right middle cerebral artery occlusion (MCAO) model", "assay": "Focal cerebral ischemia-reperfusion injury (MCAO) model in rats", "type": "in vivo, SD rats", "conditions": "nimodipine 10.8 mg/kg, x ± s, n = 10"}, "[4]": {"conditions": "PAF 0.37 μg/ml, rabbit PRP, x ± s, n = 10"}, "[5]": {"conditions": "ADP 5.4 μg/ml, rabbit PRP, x ± s, n = 10"}, "[6]": {"conditions": "serum 24 hours after reperfusion, compositions 2.4 g·kg^−1 i.v."}},
  "data": [
    {"smiles": "COCCOC(=O)C1=C(C)NC(C)=C(C(=O)OC(C)C)C1c1cccc([N+](=O)[O-])c1", "note": "(stereo not shown) [Nimodipine]", "values": [
      {"measurement": "inhibition at 0.05 µg/mL", "setting": "[1]; Oryctolagus cuniculus, Platelet, PAF-induced, from maximum aggregation rate vs blank control", "value": 27, "unit": "%"},
      {"measurement": "Platelet aggregation rate 1 min", "setting": "[1]; [4]", "value": "27.13 ± 2.06"},
      {"measurement": "Platelet aggregation rate 5 min", "setting": "[1]; [4]", "value": "42.18 ± 9.73"},
      {"measurement": "Platelet aggregation rate Max", "setting": "[1]; [4]", "value": "48.08 ± 5.82"},
      {"measurement": "Platelet aggregation rate 1 min", "setting": "[2]; [5]", "value": "26.46 ± 4.41"},
      {"measurement": "Platelet aggregation rate 5 min", "setting": "[2]; [5]", "value": "38.33 ± 5.80"},
      {"measurement": "Platelet aggregation rate Max", "setting": "[2]; [5]", "value": "41.85 ± 4.87"},
      {"measurement": "inhibition at 0.05 µg/mL", "setting": "[2]; Oryctolagus cuniculus, Platelet, ADP-induced, from maximum aggregation rate vs blank control", "value": 16, "unit": "%"},
      {"measurement": "Infarct size %", "setting": "[3]; TTC staining 24 hours after re-perfusion, compositions 2.4 g·kg^−1 i.v.", "value": "15.49 ± 5.94", "unit": "%"},
      {"measurement": "BWC %", "setting": "[3]; brain water content 24 hours after re-perfusion, compositions 2.4 g·kg^−1 i.v.", "value": "68.36 ± 8.97", "unit": "%"},
      {"measurement": "Neurologic score", "setting": "[3]; rat MCAO, 3 h ischemia, after reperfusion, compositions 2.4 g·kg^−1 tail vein injection", "value": "2.70 ± 0.95"},
      {"measurement": "MDA/nmol* mg^−1", "setting": "[3]; [6]", "value": "5.79 ± 1.75", "unit": "nmol/mg"},
      {"measurement": "SOD/U*mg^−1", "setting": "[3]; [6]", "value": "26.94 ± 4.37", "unit": "U*mg^−1"}
    ]}
  ]
}
